Measured values published in US20240350508A1, “USE OF EZH2 INHIBITORS FOR THE TREATMENT OF AORTIC VALVE STENOSIS” (INSERM (INSTITUT NATIONAL DE LA SANTÉ ET DE LA RECHERCHE …, priority 2021, published 2024).

Key:
[1] = test system: Human Valvular Interstitial Cells (hVICs); test: human monocytes secretome-induced hVICs calcification (o-cresolphthalein complexone calcium measurement); assay type: cell-based
From the text: Human aortic valves form AS patients who underwent aortic valve surgical replacement were collected at Rouen University Hospital, starting on May 2 2016, after agreement of The CPP Nord-Ouest I (RCB: 2016-A00137-44). Human Valvular Interstitial Cells (hVICs) were isolated and cultured as already described. (Morvan, Arangalage et al. 2019) Briefly, aortic valve leaflets previously collected and washed in PBS containing antibiotics were cut into pieces and digested with type I collagenase (0.22 U/mg) for 3 hours at 37° C. Digested valves are filters on 70 μm cell strainers to remove undigested valve parts and obtain a homogenous cell suspension resuspended in complete smooth muscle cell basal 2 medium (PromoCell, Heidelberg, Germany) with 10% Fetal Bovine Serum (FBS) Penicillin/Streptomycin (P/S, Sigma-Aldrich Cat #P4333). Cell suspension is then seeded into rat type collagen I (3 mg/ml, Gibco, Cat #A1048301) coated flask and incubated at 37° C., 5% CO2 for several days until reaching cell confluency. At this step hVICs are obtained and cultured in DMEM (Dulbecco's modified Eagle's medium, Gibco, Cat #41966-029) with 10% FBS and P/S until passage 4. […]
(§1) Previously isolated hVICs were treated for 10 days with human monocytes and M1 macrophages CM diluted v/v with DMEM (Gibco, Cat #41966-029) in the presence or not of inorganic […] (Pi) at a final concentration up to 1.9 mM (0.9 mM of […] already present in DMEM). Treatment with conditioned medium was renewed every 2 days and calcium content in each well was measured with the o-cresolphthalein complexone colorimetric method. […]
(§2) Data are obtained from indicated number of hVICs isolated from distinct patients. […] Data are expressed as mean values of control (DMSO (vehicle) treated monocytes or M1 macrophages)±SEM. When indicated, statistical significance was determined by non-parametric Kruskal-Wallis test followed by Dunns post-hoc test using Graphpad Prism 5 software. The use of non-parametric Kruskal-Wallis test was determined depending Shapiro-Wilk normality test data distribution.

[2] = test system: Human Valvular Interstitial Cells (hVICs); test: human M1 macrophages secretome-induced hVICs calcification (o-cresolphthalein complexone calcium measurement); assay type: cell-based; conditions: M1 macrophages pre-treatment (5 μM, 72 h); n=1 VICs patient in triplicates, CM from n=1 volunteer; FIG. 4
From the text: Human aortic valves form AS patients who underwent aortic valve surgical replacement were collected at Rouen University Hospital, starting on May 2 2016, after agreement of The CPP Nord-Ouest I (RCB: 2016-A00137-44). Human Valvular Interstitial Cells (hVICs) were isolated and cultured as already described. (Morvan, Arangalage et al. 2019) Briefly, aortic valve leaflets previously collected and washed in PBS containing antibiotics were cut into pieces and digested with type I collagenase (0.22 U/mg) for 3 hours at 37° C. […]
as §1
as §2, with “The use of non-parametric Kruskal-Wallis test was determined depending Shapiro-Wilk normality test data distribution.” left out

CC[C@H](C)n1cc(C)c2c(C(=O)NCc3c(C)cc(C)[nH]c3=O)cc(-c3ccc(N4CCNCC4)nc3)cc21 [GSK-126]
CAVD patient monocytes secretome-induced hVICs calcification ([1]; monocytes from CAVD patients pre-treated with 5 μM for 72 h, CM1, hVICs with 1.9 mM Pi for 10 days, vs vehicle (DMSO), FIG. 2): significantly reduced
volunteer monocytes secretome-induced hVICs calcification ([1]; monocytes from volunteers pre-treated with 5 μM for 72 h, CM1, hVICs with 1.9 mM Pi for 10 days, vs vehicle (DMSO), FIG. 1): significantly reduced
volunteer monocytes secretome-induced hVICs calcification 24 h after monocytes pre-treatment ([1]; monocytes from volunteers, 72 h pre-treatment then new conditioned medium for 24 h (CM2) in the absence of inhibitor, 1.9 mM Pi, FIG. 3): the same result was obtained
M1 secretome-induced hVICs calcification [2]: reduced
